The text below walks through data of EPA's ToxValDB 9.5 (doi:10.2903/j.efsa.2011.2159).

≈ marks a conversion by molar mass, not a printed value.

In one data set the test system is Bibionidae. Particulars: chronic/long-term; duration: 28 days.
Another data set concerns Aphidius rhopalosiphi. Conditions: not reported; mortality.
For a further data set, the system named is Colinus virginianus. Conditions: mortality; for LD50: acute, oral.
The test system of a further data set is Anas platyrhynchos. Conditions: mortality.
The next data set concerns Canidae. Conditions: chronic; duration: 1 years; oral; Dog Other; clinical signs.
Another data set relates to Apis mellifera. Conditions: acute; duration: 48 hours; oral; unspecified; mortality.
The subject of another data set is Mus musculus. Particulars: acute; oral; mortality.
The test system of a further data set is Daphnia magna. Conditions: chronic/long-term; duration: 21 days; reproduction.

In the case of `Cc1c(COC(=O)[C@@H]2[C@H](/C=C(\Cl)C(F)(F)F)C2(C)C)cccc1-c1ccccc1` [Bifenthrin], the NOAEL was more than 2 mg/kg-day in the data set on Rattus norvegicus (developmental, development); 3 mg/kg-day in the data set on Rattus norvegicus (reproduction developmental, reproduction); 2.9 mg/kg-day with Rattus norvegicus (subchronic, duration: 90 days, oral, neurology); 1.5 mg/kg-day in the data set on Canidae. The NOEC with Bibionidae stood at 0.00032 mg/L; in the data set with Tagia sp. (chronic/long-term, duration: 56 days, reproduction) it was 2.16 mg/kg; with Colinus virginianus (reproduction developmental), 75 mg/kg-day; with Anas platyrhynchos (reproductive) it was 75 mg/kg; in the data set with Anas platyrhynchos (short-term, oral, feed) it was 312 mg/kg; in the data set on Daphnia magna it was 9.5e-07 mg/L. Further, the NOEC in the data set with Oncorhynchus mykiss (chronic/long-term, duration: 30 days, other) was 1.2e-05 mg/L. In the data set on Aphidius rhopalosiphi, this molecule displayed an LEL of 60 g/ha. Moreover, the LC50 with Tagia sp. (acute, duration: 14 days, mortality) is more than 16 mg/kg; in the data set on Oncorhynchus mykiss (acute, duration: 96 hours, mortality), 0.1 ng/mL (≈ 0.236 nM). The LD50 is 569 mg/kg-day in the data set with Colinus virginianus (diet); 1800 mg/kg with Colinus virginianus; more than 2150 mg/kg in the data set with Anas platyrhynchos (acute, oral, unspecified); 0.1 µg/piece with Apis mellifera; 42.5 mg/kg with Mus musculus.

By NOAEL is commonly meant the highest tested level that showed no adverse finding.
